Measured values as given in article PMC6215257, “Erianin against Staphylococcus aureus Infection via Inhibiting Sortase A” (Toxins, 2018).

Legend:
V193A-SrtA (Sortase A) = target: T1, V193A-SrtA (Sortase A) (Staphylococcus aureus, UniProt Q2FV99, V193A); experiment: fluorescence quenching binding constant (KA); FRET inhibition reduced vs WT
T1 construct: residues 60–206 (pG-srtAΔN59, pGEX-6P-1)

Sortase A (srtA) = target: T2, Sortase A (srtA) (Staphylococcus aureus, UniProt Q2FV99); experiment: FRET peptide cleavage assay with purified SrtA; binding also by fluorescence quenching (KA […] L/mol); type: biochemical
T2 construct: residues 60–206 (pG-srtAΔN59, pGEX-6P-1)

R197A-SrtA (Sortase A) = target: T3, R197A-SrtA (Sortase A) (Staphylococcus aureus, UniProt Q2FV99, R197A); experiment: fluorescence quenching binding constant (KA); FRET inhibition reduced vs WT
T3 construct: residues 60–206 (pG-srtAΔN59, pGEX-6P-1)

COc1ccc(CCc2cc(OC)c(OC)c(OC)c2)cc1O [erianin]
Kd (V193A-SrtA (Sortase A)): 2280 nM | IC50 (Sortase A (srtA)): 65700 ± 7200 nM | Kd (R197A-SrtA (Sortase A)): 2530 nM
